Measurements as given in patent US9594073B2, “Test solvent for evaluating the compatibility of biologically active substances and graft copolymers” (ABBVIE DEUTSCHLAND GMBH & CO KG, priority 2010, dated 2017).

Assay: Homogeneity of melt extrudates with Soluplus (optical microscope)
Type: physicochemical
Protocol: Samples were prepared by melt extrusions of mixtures consisting of fenofibrate or ibuprofen and Soluplus®. […] Aliquots of 50 g of the powdery mixtures were extruded on a laboratory extruder (Rondol l (10 mm) Rondol Technology Ltd. Staffordshire GB) using a conveying screw equipped with two kneading elements at about 120° C. and 100 rpm. The powdery mixtures were continuously metered in via a vibratory feeder. The extrudate exiting the extruder was passed through a calendar with two smooth rollers arranged at a gap distance of 0.4 mm. Calendered sheets having a thickness of about 1 mm were thus obtained. Pieces of 2 mm×2 mm were cut out from the sheets and homogeneity of the pieces was examined using an optical microscope (Leica DMLM).

With `CC(C)Cc1ccc(C(C)C(=O)O)cc1` (centres unmarked) [ibuprofen] the “Amount of crystals in extrudate” value (ibuprofen concentration 40 wt %) was “no crystals”, the “Amount of crystals in extrudate” value (ibuprofen concentration 45 wt %) was “no crystals” and the “Amount of crystals in extrudate” value (ibuprofen concentration 50 wt %) was “low”. For the same molecule, the “Amount of crystals in extrudate” value (ibuprofen concentration 55 wt %) was “moderate” and the “Amount of crystals in extrudate” value (ibuprofen concentration 60 wt %) was “high”.
